Earlier results, collected in US7662811B2, “1,2,3,4-tetrahydropyrazin-2-yl acetamides and methods of use” (Amgen Inc., priority 2004, dated 2010).
No end group written: not given here.

## RPPGFSPFR [BK]
  half-life of BK in plasma: approximately 17 seconds
